Values quoted from earlier work in patent publication US10945992B1, “Dosage forms of rofecoxib and related methods” (Tremeau Pharmaceuticals, Inc., priority 2019, dated 2021).

How the values were obtained:
[1] = cited from earlier work; for incidence of gastrointestinal (GI) ulcers visualized at endoscopy compared to certain non-selective NSAIDs: FDA 2005; for risk of serious adverse cardiovascular events compared to placebo: long-term controlled clinical trial / FDA 2005
patients with HA = conditions: six weeks of Part 1; P<0.001; cited from earlier work

SMILES | incidence of gastrointestinal (GI) ulcers visualized at endoscopy compared to certain non-selective NSAIDs [1] | risk of serious adverse cardiovascular events compared to placebo [1] | improvement on all endpoints versus placebo (patients with HA)
Cc1ccc(-c2cc(C(F)(F)F)nn2-c2ccc(S(N)(=O)=O)cc2)cc1 [celecoxib] | reduction | increased risk | 
Cc1ccc(-c2ncc(Cl)cc2-c2ccc(S(C)(=O)=O)cc2)cn1 [etoricoxib] |  |  | clinically and statistically significant improvement
Cc1onc(-c2ccccc2)c1-c1ccc(S(N)(=O)=O)cc1 [valdecoxib] | reduction | increased risk | 
